According to PubChem BioAssay (NCI):
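Step 1: Grow cells in 96-well plates. Step 2: Expose to compound for 48 hours at 5 concentrations. Step 3: Interpolate endpoints linearly; if unreached, use highest concentration. GI50 = concentration required for 50% inhibition of growth. The concentration for full growth arrest is given as TGI.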

Experiments:
Assay in all cases: NCI anticancer screen, dose series, 48 h
SNB-19 CNS = system: SNB-19 CNS
OVCAR-3 ovarian = system: OVCAR-3 ovarian
NCI-H226 lung = system: NCI-H226 lung
KM12 colon = system: KM12 colon
SW-620 colon = system: SW-620 colon
HT29 colon = system: HT29 colon
PC-3 prostate = system: PC-3 prostate
COLO 205 colon = system: COLO 205 colon
CAKI-1 renal = system: CAKI-1 renal
NCI/ADR-RES ovarian = system: NCI/ADR-RES ovarian

SMILES	GI50 (SNB-19 CNS) [µM]	TGI (SNB-19 CNS) [µM]	GI50 (OVCAR-3 ovarian) [µM]	TGI (OVCAR-3 ovarian) [µM]	GI50 (NCI-H226 lung) [µM]	TGI (NCI-H226 lung) [µM]	GI50 (KM12 colon) [µM]	TGI (KM12 colon) [µM]	GI50 (SW-620 colon) [µM]	TGI (SW-620 colon) [µM]	GI50 (HT29 colon) [µM]	TGI (HT29 colon) [µM]	GI50 (PC-3 prostate) [µM]	TGI (PC-3 prostate) [µM]	GI50 (COLO 205 colon) [µM]	TGI (COLO 205 colon) [µM]	GI50 (CAKI-1 renal) [µM]	TGI (CAKI-1 renal) [µM]	GI50 (NCI/ADR-RES ovarian) [µM]	TGI (NCI/ADR-RES ovarian) [µM]
N#Cc1c(N)nc(N2CCSCC2)c(C#N)c1-c1ccc(O)cc1	27.9	98.9	17.5	44.8	21.9	58.5	20.2	92.2	27.5	> 100	16.7	37.6	19.8	> 100	19.8	47.1	26.7	> 100	20.6	67.1
C1CCN2CC3CCCN4CCCC(C2C1)C34 (stereo not drawn)	–	> 100	–	> 100	–	> 100	–	> 100	–	> 100	–	> 100	–	> 100	–	> 100	–	> 100	–	> 100
O=C1C(=O)N(c2cccc(C(F)(F)F)c2)C(=O)C(=O)C1c1nc2ccccc2s1	–	> 100	–	> 100	–	> 100	–	> 100	–	> 100	–	> 100	–	> 100	–	> 100	–	> 100	–	> 100
CCN(CC)CC(C)(C)C(=O)/C=C/c1ccc(/C=C/C(=O)C(C)(C)CN(CC)CC)cc1	–	4.21	–	1.76	–	6.97	–	2.16	–	0.523	–	0.534	–	1.51	–	1.29	–	1.99	–	6.59
CC(CCCC1SCC2NC(=O)NC21)C(=O)O (stereo not drawn)	–	> 100	–	> 100	–	> 100	–	> 100	–	> 100	–	> 100	–	> 100	–	> 100	–	> 100	–	> 100
O=C(Nc1ccc2c(c1)OCO2)C(=O)c1c[nH]c2cc(F)ccc12	7.74	77.3	4.67	19	3.74	16.8	0.389	13.7	2.07	> 100	8.04	> 100	3.33	> 100	13.5	> 100	0.677	> 100	1.47	22.9
CC1CC(C)C2=NOS3=C2C1=NO3 (stereo not drawn)	–	> 100	–	> 100	–	> 100	–	> 100	–	> 100	–	> 100	–	> 100	–	> 100	–	> 100	–	> 100
COC(=O)C1=C(C(=O)OC)C2OC1c1cc3ccccc3cc12	–	33.5	–	7.29	–	11.6	–	> 58.1	–	3.96	–	20.4	–	32.2	–	3.39	–	4.26	–	30.7
C[C@@H]1CC[C@@H]2[C@@H](C)C[C@H]3[C@@H]4C(C)(C)OC(=O)[C@]4(C)C(=O)[C@@]23C1=O	–	> 100	75.9	> 100	–	> 100	–	> 100	–	> 100	–	> 100	> 100	> 100	–	> 100	–	> 100	–	> 100
NC(=Nc1nc(-c2ccccn2)cc2ccccc12)c1ccccn1	–	> 89.5	0.00188	> 100	0.237	23	0.336	> 56.7	0.0505	> 100	0.0708	> 100	0.0545	> 100	0.00195	–	0.0422	> 11.9	0.0434	–
CCCCCCN(C)Cc1ccc(OCCOc2ccc(CN(C)CCCCCC)cc2)cc1	1.71	3.87	1.36	2.91	1.53	3.19	1.47	2.84	1.48	3.13	0.375	1.53	1.24	2.8	0.659	2.19	1.35	2.9	1.38	3.16
O=S(=O)(Nc1ccc2ccccc2c1)c1ccc(-c2cnc(C3CC3)o2)cc1	1.49	> 100	0.435	5.37	3.99	20.4	0.624	14.7	0.468	18.3	0.429	17.6	1.69	19.1	1.79	9.22	0.539	38	0.713	5.81
COC(=O)C1=C(O)[C@H](C(=O)OC)[C@]2(O)[C@@H](C(=O)OC)[C@H]1C[C@@H](c1ccc(OC(=O)/C=C/c3ccco3)cc1)[C@@H]2C(=O)OC	22.6	87.5	27.6	82.5	15.8	37.1	43.7	> 100	36.3	> 100	11.5	> 100	21.5	88.3	15	87.9	27	86.8	12.3	32.2
COc1ccc2c(c1)N(CCO)C1=C(C(=O)OC1)C2c1ccccc1 (stereo not drawn)	2.32	> 50	1.18	2.47	1.55	19	1.48	12	1.64	> 50	1.77	5.73	1.75	> 50	1.8	4.85	1.15	> 50	0.992	2.66
O=C(Cn1c(C(=O)c2ccccc2)nc2ccccc21)c1ccc(F)cc1	25.2	> 100	3.39	> 25.5	> 100	> 100	2.48	> 100	3.28	> 100	3.51	> 100	13.6	> 100	17.9	> 64.5	–	> 30.9	3.47	> 29.4
